# Test results: patent US20160089464A1, “MALODOR REDUCTION COMPOSITIONS” (The Procter & Gamble Company, priority 2014, published 2016)
# “Also recorded” adds a separate entry of the source.
# Test: Comment Code material properties: vapor pressure, ClogP, probability of ingredient color instability, odor detection threshold, melamine formaldehyde PMC headspace response ratio and leakage, liquid dish neat product liquid-air partition coefficient
# Type: physicochemical
# Settings: cell strings several class symbols together; each letter is one property class of L1
row,Compound,Comment Code
1,CC1COC(C)(c2ccc3c(c2)C(C)(C)CCC3(C)C)O1 (stereo not shown) [Material 2],DFHJ
2,C=C1C2CCC(C)(C)C1CCC(OC)C2 (stereo not shown) [Material 7],BDEFHJK
3,CCOC1CCC(C(C)(C)CC)CC1 (stereo not shown) [Material 12],ADEFHJK
4,CC=CCOCC/C=C\CC [Material 19],ADEFHJKL
5,COC(C)(C)C1CC=C(C)CC1 (stereo not shown) [Material 20],ADHIJKL
6,CC1C(C)(C)C2=C(C3OC(C)(C)OC3CC2)C1(C)C (stereo not shown) [Material 23],DEFHJK
7,C=CC(C)(CCC=C(C)C)OC (stereo not shown) [Material 24],ADHIJKL
8,COc1ccccc1C=CC=O [Material 26],ACHK
9,CC(C)CCCC(C)CC=O (stereo not shown) [Material 27],ADGIJKL
10,CC1=CC(C)C2C(CCC(C)(C)C2O)C1 (stereo not shown) [Material 39],DEFHIJK
11,CC1=CCC(C=CC(C)(C)C(C)O)C1(C)C (stereo not shown) [Material 53],CEFHJ
12,CC=CC(=O)OCCCCCC [Material 55],ADEFHJKL
13,CC(C)=CCC/C(C)=C\COC=O [Material 59],BCEFHJK
14,C=CC(C)=CCC1OC1(C)C (stereo not shown) [Material 73],ADGIJKL
15,CCC(C)(O)/C=C/C=C(C)C (stereo not shown) [Material 81],BCEFGIJK
16,CC/C=C\CCOC(=O)C1CC1 [Material 84],BCEFHIKL
17,CCC(=O)OC(C)c1ccccc1 (stereo not shown) [Material 96],BCHJK
18,COC(=O)Cc1ccccc1 [Material 97],ACEFHIKL
19,CC1CCC2(CCCC(=O)O2)C1 (stereo not shown) [Material 107],BCEFGIKL
20,COC(=O)C=C(C)CCC=C(C)C [Material 111],BCHJKL
21,CCOc1cc(COC)ccc1O [Material 115],CFGK

row,Compound,Comment Code
1,COC(=O)C=C1CCCC1 [Material 116],ACEFHIKL
2,COC(C)(C)CCCC(C)C=O (stereo not shown) [Material 125],ACGIJK
3,CC(C)C1CCC(CO)CC1 (stereo not shown) [Material 133],BDEFHIJK
4,CC1OC(C)C2Cc3ccccc3C2O1 (stereo not shown) [Material 141],CEFHJK
5,C=CC(C)(CCC=C(C)C)OC=O (stereo not shown) [Material 150],ACFHJK
6,C=CC(C)(CCC=C(C)C)OC(=O)CCC (stereo not shown) [Material 151],BDEFHJK
7,C=CC(C)(CCC=C(C)C)OC(C)=O (stereo not shown) [Material 154],BDHJK
8,C=CC(C)(O)CCC=C(C)C (stereo not shown) [Material 157],BCEFGIJK
9,CC/C=C\CCOC(=O)OC [Material 163],ACEFGKL
10,Cc1ccnc2ccccc12 [Material 166],BCEFHIKL
11,C=C(C)[C@@H]1CC=C(C)C(=O)C1 [Material 169],ACGIJKL
12,C=C1[C@H]2CC[C@H](CO)[C@@]23CC[C@H](C3)C1(C)C [Material 183],CEFHJK
13,CC1(CO)CC1CC1CC2CC2(C)C1(C)C (stereo not shown) [Material 185],DEFHJK
14,CC(C)C=CCO [Material 194],ACGIKL
15,CCC(C)C(=O)OC(C)C (stereo not shown) [Material 198],ACEFGIJKL
16,COc1c2ccoc2c(OC)c2oc(=O)ccc12 [Material 199],CFGJ
17,C=C(C)CC(C)OC(=O)C(C)C (stereo not shown) [Material 201],ADEFGIJKL
18,CC(=O)OCCCCCCC(C)C [Material 204],BDEFHJKL
19,CC(C)CCCCCCO [Material 205],BDEFGIKL
20,CC1CCCCCCCCCCCCC(=O)C1 (stereo not shown) [Material 206],DEFGJK
21,CC=Cc1ccc(OCc2ccccc2)c(OC)c1 [Material 212],DFHJ

row,Compound,Comment Code
1,CC=Cc1ccc(OC(C)=O)c(OC)c1 [Material 213],CFHJK
2,CC=Cc1ccc(O)c(OC)c1 [Material 214],CEFHIK
3,CC(=O)[C@@]1(C)CC2=C(CCCC2(C)C)C[C@@H]1C [Material 215],DHJK
4,CC(C)C(=O)OC1CC2CCC1(C)C2(C)C (stereo not shown) [Material 229],BDEFHIJK
5,CC1C2CC(CC2C2CCC(O)CC2)C1(C)C (stereo not shown) [Material 230],DEFHJK
6,CCCCCCCC(=O)OCCC(C)C [Material 237],DEFHJK
7,CC(C)CCOC(=O)C(C)C [Material 239],ACEFGIJKL
8,CC1(C)C2=C(CO)CCC(C)(C)C23CCC1C3 (stereo not shown) [Material 248],DEFHJK; also recorded: BDEFHJK
9,O=C(O)CCc1ccccc1 [Material 255],CEFHIK
10,CC1(C)CCc2ccc(CCC=O)cc21 [Material 260],DHJK
11,CCCCCCOC(=O)CC [Material 264],ADEFHIKL
12,CCCCCCOC(=O)CCC [Material 270],BDEFHJKL
13,CCCCCCOC(=O)C(C)CC (stereo not shown) [Material 273],BDEFHJKL
14,CCCCCCOC(=O)c1ccco1 [Material 275],DEFHJK
15,CC(=O)OC1CC2CC1C1CC=CC21 (stereo not shown) [Material 281],CEFGJK
16,CCCCCCCO [Material 282],ACEFGIKL
17,CCCCCCCOC(C)=O [Material 283],ADEFHKL
18,CCCCCCC=O [Material 284],ACHIKL
19,O=Cc1ccc2c(c1)OCO2 [Material 287],BCGIK
20,CC(C)=CCCC(C)=CC#N [Material 302],BCEFHKL
21,CC(C)=CCC/C(C)=C/COC=O [Material 306],BCEFHJK

row,Compound,Comment Code
1,CCCCCCCC(=O)OC/C=C(\C)CCC=C(C)C [Material 308],DEFHJ
2,CC(C)=CCC/C(C)=C/COC(=O)c1ccccc1 [Material 310],DFHJ
3,CCC(C)C(=O)N(C)c1ccccc1 (stereo not shown) [Material 314],BCEFHJK
4,CC1=CCC(C(C)C)=CC1 [Material 319],ADEFGIJKL
5,CC1=C2CC(C(C)(C)O)CCC2(C)CCC1 (stereo not shown) [Material 329],DFHJK
6,CC1COCc2cc3c(cc21)C(C)(C)C(C)C3(C)C (stereo not shown) [Material 335],DEFHJK
7,CCC(=O)OC1CC2C3C=CCC3C1C2(C)C (stereo not shown) [Material 343],DEFHJK
8,C/C=C1/CC2CC1C1CCC(=O)OC21 (stereo not shown) [Material 353],CEFGJK
9,CCc1ccccc1CC(C)(C)C=O [Material 354],BDHJK
10,CCOC(=O)OC1CCCCC1C(C)(C)C (stereo not shown) [Material 355],BDFHJK
11,CC(O)C(C)/C=C1\C[C@H]2C[C@@H]1[C@@H]1C=CC[C@H]21 (stereo partly shown) [Material 359],DEFHJK
12,CC(=O)OC1CC2C3C=CCC3C1C2(C)C (stereo not shown) [Material 360],DEFHJK
13,CCOC(=O)OC1CCCCC1C(C)(C)C (stereo not shown) [Material 365],ACFHIKL
14,CC12CCC(C1)C(C)(C)C2O (stereo not shown) [Material 366],ACGIJKL
15,CC12CCC(CC1)C(C)(C)O2 [Material 376],ADEFGIJKL
16,CC(=O)O.CCOc1cc(C=O)ccc1O [Material 379],CHJ
17,CCCCCCCC(=O)OCC [Material 387],BDEFHJKL
18,CCOC(=O)C=Cc1ccccc1 [Material 400],BCEFHK
19,CCOC(=O)C(C)C1CCCCC1 (stereo not shown) [Material 412],BDFHIJKL
